The text below walks through data of article PMC6540056, “A Thermostable Aspergillus fumigatus GH7 Endoglucanase Over-Expressed in Pichia pastoris Stimulates Lignocellulosic Biomass Hydrolysis” (International Journal of Molecular Sciences, 2019).

As a reminder, the inhibition is the change of the read-out against control, counted positive when it falls.

The target of this test is T1, Af-EGL7 (Aspergillus fumigatus, UniProt Q4WCM9).
T1 construct: gene AFUA_6G01800; ORF without predicted signal peptide in pPICZalphaA, alpha-factor secretion signal, C-terminal vector tag with His6 kept, from Pichia pastoris X-33, N-glycosylated, about 70 kDa on SDS-PAGE; forward primer encodes EF-QQPAA at N-terminus
T1 sequence (Q4WCM9 21-460): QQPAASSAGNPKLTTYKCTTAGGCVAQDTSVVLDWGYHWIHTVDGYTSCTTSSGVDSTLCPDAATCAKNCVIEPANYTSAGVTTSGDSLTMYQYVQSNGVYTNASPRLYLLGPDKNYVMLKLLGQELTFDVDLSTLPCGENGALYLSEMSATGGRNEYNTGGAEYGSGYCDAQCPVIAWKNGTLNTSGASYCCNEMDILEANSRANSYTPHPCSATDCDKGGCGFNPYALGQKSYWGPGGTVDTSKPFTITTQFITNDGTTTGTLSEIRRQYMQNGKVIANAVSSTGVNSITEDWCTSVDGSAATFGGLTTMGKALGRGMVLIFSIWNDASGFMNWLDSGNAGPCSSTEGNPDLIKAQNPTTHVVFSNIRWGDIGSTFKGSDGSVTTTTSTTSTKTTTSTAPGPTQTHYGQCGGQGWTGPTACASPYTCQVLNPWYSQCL
Briefly: colorimetric, Azo-Xyloglucan hydrolysis, […] nm. The format is biochemical. Conditions: read-out: % inhibition at 50 mM.

As for `OC[C@H]1O[C@@H](O[C@H]2[C@H](O)[C@@H](O)C(O)O[C@@H]2CO)[C@H](O)[C@@H](O)[C@@H]1O` (stereo partly shown) [cellobiose], the inhibition at 50000 µM was 35%.
